Columns and labels:
Rattus norvegicus [1] = test: Change in systolic blood pressure at intervals of 1 hr after oral administration of 1 mg/kg of compound in spontaneously hypertensive rats (in vivo); Not significant; format: functional, Artery
Rattus norvegicus [2] = species: Rattus norvegicus; test: Percentage of inhibition of noradrenaline-induced contractions in rat portal vein at 10 uM (in vitro); format: functional
Cavia porcellus [3] = species: Cavia porcellus; test: In vitro inhibition of spontaneous tone of guinea pig tracheal spirals; format: functional; conditions: Trachea
Rattus norvegicus [4] = species: Rattus norvegicus; test: In vitro inhibition of noradrenaline-induced contractions in rat portal vein; format: functional
Rattus norvegicus [5] = test: Effective dose (after peroral administration) required to decrease systolic blood pressure by 30 mmHg in spontaneously hypertensive rats (SHR); format: functional; conditions: Artery, po
Rattus norvegicus [6] = test: Change in systolic blood pressure at intervals of 1 hr after oral administration of 1 mg/kg of compound in spontaneously hypertensive rats (in vivo); format: functional, Artery
Cavia porcellus [7] = species: Cavia porcellus; test: Inhibition of spontaneous tone of guinea pig tracheal spirals; Insoluble; format: functional, Trachea
Rattus norvegicus [8] = species: Rattus norvegicus; test: Inhibition of noradrenaline-induced contractions in rat portal vein; Insoluble; format: functional
Rattus norvegicus [9] = test: Change in systolic blood pressure at intervals of 1 hr after oral administration of 0.1 mg/kg of compound in spontaneously hypertensive rats (in vivo); format: functional, Artery

Row | IC50 (Cavia porcellus [3]) [µM] | IC50 (Rattus norvegicus [4]) [µM] | Compound | ED30 (Rattus norvegicus [5]) [µg/kg] | other results
1 | > 10 | – | CC1(C)C(=O)c2ccc(C#N)cc2[C@@H](NC(=O)c2ccc(Cl)c(Cl)c2)[C@@H]1O | – | Delta blood pressure (Rattus norvegicus [1]): <20 mmHg; inhibition at 10 µM (Rattus norvegicus [2]): 67%
2 | 0.5 | 0.6 | CC1(C)C=C(n2ccccc2=O)c2cc(C#N)ccc2C1=O | 4 | –
3 | 2.1 | 8.8 | CC1(C)C(=O)c2ccc(C#N)cc2[C@@H](Oc2ccc(=O)[nH]n2)[C@@H]1O | 6 | –
4 | 3.5 | – | C/C(=N/[C@@H]1c2cc(C#N)ccc2C(=O)C(C)(C)[C@H]1O)NC#N | – | Delta blood pressure (Rattus norvegicus [1]): <20 mmHg; inhibition at 10 µM (Rattus norvegicus [2]): 19%
5 | > 10 | – | CC(=O)OC1c2ccc(Br)cc2C(n2ccccc2=O)=CC1(C)C (configuration not stated) | – | Delta blood pressure (Rattus norvegicus [1]): <20 mmHg; inhibition at 10 µM (Rattus norvegicus [2]): 38%
6 | 0.6 | 2.8 | Cn1nc(O[C@@H]2c3cc(C#N)ccc3C(=O)C(C)(C)[C@H]2O)ccc1=O | 40 | –
7 | 0.2 | 1 | C#Cc1ccc2c(c1)C(n1ccccc1=O)=CC(C)(C)C2=O | 2 | Max fall in blood pressure (Rattus norvegicus [6]): 94 mmHg
8 | – | – | CC1(C)C=C(n2ccccc2=O)c2cc(C(F)(F)C(F)(F)F)ccc2C1=O | 2 | IC50 (Cavia porcellus [7]): Insoluble; IC50 (Rattus norvegicus [8]): Insoluble; Max fall in blood pressure (Rattus norvegicus [9]): 81 mmHg
9 | 0.5 | 0.3 | CC1(C)C=C(n2ccccc2=O)c2cc(C(F)(F)F)ccc2C1=O | 5 | –
10 | 0.2 | 0.5 | CC1(C)C=C(n2ccccc2=O)c2cc(Br)ccc2C1=O | 9 | Max fall in blood pressure (Rattus norvegicus [9]): 42.6 mmHg
11 | > 10 | – | CC1(C)C=C(n2ccccc2=O)c2cc(C(N)=O)ccc2C1=O | – | Delta blood pressure (Rattus norvegicus [1]): <20 mmHg; inhibition at 10 µM (Rattus norvegicus [2]): 21%
12 | 0.9 | 0.8 | CC1(C)C=C(N2CCCC2=O)c2cc(C#N)ccc2C1=O | 30 | –
13 | – | – | CC1(C)Oc2ccc(C#N)cc2C(N2CCCC2=O)C1O (racemic) [CROMAKALIM] | 50 | –
14 | 0.3 | 0.1 | CC1(C)Oc2ccc(C#N)cc2[C@@H](N2CCCC2=O)[C@@H]1O [LEVCROMAKALIM] | 10 | Max fall in blood pressure (Rattus norvegicus [9]): 73 mmHg

Row | Compound | IC50 (Cavia porcellus [3]) [µM] | IC50 (Rattus norvegicus [4]) [µM] | ED30 (Rattus norvegicus [5]) [µg/kg] | other results
15 | CC1(C)C=C(n2ccccc2=O)c2cc(C#C[Si](C)(C)C)ccc2C1=O | 2.4 | 0.5 | 5 | –
